≈ marks a conversion by molar mass, not a printed value.
Assays:
[1] = test system: Staphylococcus aureus; assay: In vitro antibacterial activity against Staphylococcus aureus UC12673 (SA2); assay type: functional
[2] = test system: Enterococcus faecalis; assay: In vitro antibacterial activity against vancomycin susceptible Enterococcus faecalis UC19217 (VSEF); assay type: functional
[3] = test system: Staphylococcus aureus; assay: In vitro antibacterial activity against methicillin susceptible Staphylococcus aureus UC19213 (MSSA); (SA1); assay type: functional
[4] = test system: Moraxella catarrhalis; assay: In vitro antibacterial activity against Moraxella catarrhalis 30607 (b-lactamase+).; assay type: functional
[5] = test system: Haemophilus influenzae; assay: In vitro antibacterial activity against ampicillin resistant Haemophilus influenzae 30063 (AMPR b-lactamase+); assay type: functional
[6] = test system: Staphylococcus epidermidis; assay: In vitro antibacterial activity against methicillin resistant Staphylococcus epidermis US 12084 (MRSE); assay type: functional
[7] = test system: Streptococcus pneumoniae; assay: In vitro antibacterial activity against penicillin susceptible Streptococcus pneumoniae UC19912 (PSSP); assay type: functional
[8] = test system: Mus musculus; assay: In vivo efficacy of compound to protect the Staphylococcus aureus UC9213 infected mouse from death after sc administration; assay type: functional
[9] = Clearance (Cl) of compound (10 mg/kg) after iv administration was determined in Sprague-Dawley rat; assay type: ADME, organism-based; settings: in vivo
[10] = Maximum plasma concentration (Cmax) of compound (25 mg/kg) after po administration was determined Sprague-Dawley rat; assay type: ADME, organism-based; design: dose 25 mg/kg, route oral
[11] = Tmax of compound (25 mg/kg) after po administration was determined in Sprague-Dawley rat; assay type: ADME, organism-based; settings: in vivo
[12] = Oral bioavailability of compound (19.2 mg/kg) after po administration was determined in Sprague-Dawley rat; assay type: ADME, organism-based; settings: in vivo
[13] = Maximum plasma concentration (Cmax) of compound (9.83 mg/kg) after iv administration was determined Sprague-Dawley rat; assay type: ADME, organism-based; design: dose 9.83 mg/kg, route intravenous
[14] = Half life of compound (9.83 mg/kg) after iv administration was determined in Sprague-Dawley rat; assay type: ADME, organism-based; settings: in vivo
[15] = Steady state volume distribution (Vss) of compound(9.83 mg/kg) after iv administration was determined in Sprague-Dawley rat; assay type: ADME, organism-based; settings: in vivo, read-out: Vss
[16] = test system: Mus musculus; assay: In vivo efficacy of compound against Staphylococcus aureus UC9213 was determined after peroral administration in mouse; assay type: functional; settings: po
[17] = Clearance (Cl) of compound (9.83 mg/kg) after iv administration was determined in Sprague-Dawley rat; assay type: ADME, organism-based; settings: in vivo
[18] = Maximum plasma concentration (Cmax) of compound (19.2 mg/kg) after po administration was determined Sprague-Dawley rat; assay type: ADME, organism-based; design: dose 19.2 mg/kg, route oral
[19] = Tmax of compound (19.2 mg/kg) after po administration was determined in Sprague-Dawley rat; assay type: ADME, organism-based; settings: in vivo
[20] = Half life of compound (19.2 mg/kg) after po administration was determined in Sprague-Dawley rat; assay type: ADME, organism-based; settings: in vivo
[21] = Half life of compound (9.92 mg/kg) after iv administration was determined in Sprague-Dawley rat; assay type: ADME, organism-based; settings: in vivo
[22] = Steady state volume distribution (Vss) of compound after iv administration was determined in Sprague-Dawley rat; assay type: ADME, organism-based; settings: in vivo, read-out: Vss
[23] = Maximum plasma concentration (Cmax) of compound (9.92 mg/kg) after iv administration was determined Sprague-Dawley rat; assay type: ADME, organism-based; design: dose 9.92 mg/kg, route intravenous
[24] = Tmax of compound (20.73 mg/kg) after po administration was determined in Sprague-Dawley rat; assay type: ADME, organism-based; settings: in vivo
[25] = Clearance (Cl) of compound (9.92 mg/kg) after iv administration was determined in Sprague-Dawley rat; assay type: ADME, organism-based; settings: in vivo
[26] = Oral bioavailability of compound (20.73 mg/kg) after po administration was determined in Sprague-Dawley rat; assay type: ADME, organism-based; settings: in vivo
[27] = Maximum plasma concentration (Cmax) of compound (20.73 mg/kg) after po administration was determined Sprague-Dawley rat; assay type: ADME, organism-based; design: dose 20.73 mg/kg, route oral
[28] = Half life of compound (20.73 mg/kg) after po administration was determined in Sprague-Dawley rat; assay type: ADME, organism-based; settings: in vivo
[29] = test system: Mus musculus; assay: In vivo efficacy of compound to protect the Staphylococcus aureus UC9213 infected mouse from death after po administration; assay type: functional
[30] = test system: Rattus norvegicus; assay: Clearance (Cl) of compound (9.84 mg/kg) after iv administration was determined in Sprague-Dawley rat; assay type: ADME, organism-based; settings: in vivo
[31] = test system: Rattus norvegicus; assay: Half life of compound (9.84 mg/kg) after iv administration was determined in Sprague-Dawley rat; assay type: ADME, organism-based; settings: in vivo
[32] = Maximum plasma concentration (Cmax) of compound (9.84 mg/kg) after iv administration was determined Sprague-Dawley rat; assay type: ADME, organism-based; design: dose 9.84 mg/kg, route intravenous
[33] = Maximum plasma concentration (Cmax) of compound (19.76 mg/kg) after po administration was determined Sprague-Dawley rat; assay type: ADME, organism-based; design: dose 19.76 mg/kg, route oral
[34] = Half life of compound (9.84 mg/kg) after po administration was determined in Sprague-Dawley rat; assay type: ADME, organism-based; settings: in vivo
[35] = Oral bioavailability of compound (19.76 mg/kg) after po administration was determined in Sprague-Dawley rat; assay type: ADME, organism-based; settings: in vivo
[36] = Tmax of compound (19.76 mg/kg) after po administration was determined in Sprague-Dawley rat; assay type: ADME, organism-based; settings: in vivo
[37] = test system: Rattus norvegicus; assay: Steady state volume distribution (Vss) of compound(9.84 mg/kg) after iv administration was determined in Sprague-Dawley rat; assay type: ADME, organism-based; settings: in vivo

Compound	MIC [1] [µg/mL]	MIC [2] [µg/mL]	MIC [3] [µg/mL]	MIC [4] [µg/mL]	MIC [5] [µg/mL]	MIC [6] [µg/mL]	MIC [7] [µg/mL]	other results
CC(=O)NC[C@H]1CN(c2ccc3c(c2)CC[C@@H](C)N3C=O)C(=O)O1	1 (≈ 3.02 µM)	1 (≈ 3.02 µM)	2 (≈ 6.04 µM)	4 (≈ 12.1 µM)	32 (≈ 96.6 µM)	< 0.5	< 0.5	
CC(=O)NC[C@H]1CN(c2ccc3c(c2)C[C@H](C)N3)C(=O)O1	32 (≈ 111 µM)	64 (≈ 221 µM)	32 (≈ 111 µM)	> 64	> 64	16 (≈ 55.3 µM)		
CC(=O)NC[C@H]1CN(c2ccc3c(c2)C[C@H](C)N3C=O)C(=O)O1	8 (≈ 25.2 µM)	16 (≈ 50.4 µM)	8 (≈ 25.2 µM)	> 64	> 64	4 (≈ 12.6 µM)	4 (≈ 12.6 µM)	
CC(=O)NC[C@H]1CN(c2ccc(N3CCOCC3)c(F)c2)C(=O)O1 [LINEZOLID]				8 (≈ 23.7 µM)	16 (≈ 47.4 µM)	< 1	< 0.5	ED50 [8]: 5.6 mg/kg; clearance [9]: 10.5 mL/min/kg; Cmax [10]: 15800 ng/mL; Tmax [11]: 18 min
C/C(S)=N/C[C@H]1CN(c2ccc3c(c2)C[C@@H](C)N3C(=O)CO)C(=O)O1	< 0.5	< 0.5	< 0.5	2 (≈ 5.5 µM)	8 (≈ 22 µM)	< 0.5	< 0.5	
C/C(S)=N/C[C@H]1CN(c2ccc3c(c2)C[C@@H](C)N3C=O)C(=O)O1	< 0.5	< 0.5	< 0.5	1 (≈ 3 µM)	2 (≈ 6 µM)	< 0.5	< 0.5	bioavailability [12]: 30.8%; Cmax [13]: 13600 ng/mL; half-life [14]: 6 min; Vd [15]: 0.64 L/kg; ED50 [16]: 7.5 mg/kg; clearance [17]: 28.9 mL/min/kg; Cmax [18]: 1130 ng/mL; Tmax [19]: 30 min; half-life [20]: 36.6 min
CC(=O)NC[C@H]1CN(c2ccc3c(c2)OC[C@@H](C)N3C=O)C(=O)O1	2 (≈ 6 µM)	4 (≈ 12 µM)	4 (≈ 12 µM)	8 (≈ 24 µM)	64 (≈ 192 µM)	< 1	< 1	
C/C(S)=N/C[C@H]1CN(c2ccc3c(c2)C[C@H](C)N3C=O)C(=O)O1	2 (≈ 6 µM)	2 (≈ 6 µM)	2 (≈ 6 µM)	16 (≈ 48 µM)	32 (≈ 96 µM)	1 (≈ 3 µM)	< 0.5	
CC(=O)NC[C@H]1CN(c2ccc3c(c2)C[C@H](C)N3C(=O)CO)C(=O)O1	8 (≈ 23 µM)	8 (≈ 23 µM)	8 (≈ 23 µM)	16 (≈ 46.1 µM)	> 16	2 (≈ 5.76 µM)	1 (≈ 2.88 µM)	
CC(=O)NC[C@H]1CN(c2ccc3c(c2)CC[C@H](C)N3C=O)C(=O)O1	4 (≈ 12.1 µM)	8 (≈ 24.1 µM)	8 (≈ 24.1 µM)	16 (≈ 48.3 µM)	64 (≈ 193 µM)	< 2	< 2	
CC(=O)NC[C@H]1CN(c2ccc3c(c2)C[C@@H](C)N3)C(=O)O1	8 (≈ 27.6 µM)	16 (≈ 55.3 µM)	8 (≈ 27.6 µM)	> 61	> 64	4 (≈ 13.8 µM)	4 (≈ 13.8 µM)	
CC(=O)NC[C@H]1CN(c2ccc3c(c2)C[C@@H](C)N3C(=O)CO)C(=O)O1	2 (≈ 5.76 µM)	2 (≈ 5.76 µM)	4 (≈ 11.5 µM)	8 (≈ 23 µM)	8 (≈ 23 µM)	0.5 (≈ 1.44 µM)	0.5 (≈ 1.44 µM)	half-life [21]: 108 min; Vd [22]: 1.28 L/kg; Cmax [23]: 15100 ng/mL; Tmax [24]: 30 min; clearance [25]: 24 mL/min/kg; bioavailability [26]: 55.4%; Cmax [27]: 3800 ng/mL; half-life [28]: 168 min; ED50 [29]: 1.8 mg/kg
CC(=O)NC[C@H]1CN(c2ccc3c(c2)C[C@@H](C)N3C=O)C(=O)O1	1 (≈ 3.15 µM)	1 (≈ 3.15 µM)	1 (≈ 3.15 µM)	4 (≈ 12.6 µM)	8 (≈ 25.2 µM)	< 0.5	< 0.5	CL [30]: 1.84 mL/min/kg; T1/2 [31]: 102 min; Cmax [32]: 16100 ng/mL; Cmax [33]: 7200 ng/mL; half-life [34]: 48 min; bioavailability [35]: 56%; Tmax [36]: 30 min; Vss [37]: 1.27 L/kg
CC(=O)NC[C@H]1CN(c2ccc3c(c2)OC[C@H](C)N3C=O)C(=O)O1	8 (≈ 24 µM)	32 (≈ 96 µM)	8 (≈ 24 µM)	32 (≈ 96 µM)	64 (≈ 192 µM)	< 4	< 4	
C/C(S)=N/C[C@H]1CN(c2ccc3c(c2)OC[C@@H](C)N3C=O)C(=O)O1	< 0.5	1 (≈ 2.86 µM)	< 0.5	2 (≈ 5.72 µM)	32 (≈ 91.6 µM)	< 0.5	0.5 (≈ 1.43 µM)	
C/C(S)=N/C[C@H]1CN(c2ccc3c(c2)CC[C@@H](C)N3C=O)C(=O)O1	< 0.5	< 0.5	< 0.5	1 (≈ 2.88 µM)	4 (≈ 11.5 µM)	< 0.5	< 0.5	
C/C(S)=N/C[C@H]1CN(c2ccc3c(c2)CC[C@H](C)N3C=O)C(=O)O1	1 (≈ 2.88 µM)	2 (≈ 5.76 µM)	1 (≈ 2.88 µM)	2 (≈ 5.76 µM)	16 (≈ 46.1 µM)	< 0.5	< 0.5	

From ChEMBL document CHEMBL1136462, “The effect of remote chirality on the antibacterial activity of indolinyl, tetrahydroquinolyl and dihydrobenzoxazinyl oxazolidinones” (Bioorg Med Chem Lett, 2003)
